# According to patent US20260365670A1, “EGFR INHIBITORS AND USES THEREOF” (DIZAL (JIANGSU) PHARMACEUTICAL CO., LTD., priority 2022, published 2026):
# Read-outs that look alike come from different tables or passages of the source.
# Experiments:
# EGFR wild type = biological target: T1, EGFR wild type (Homo sapiens, UniProt P00533); assay: Inhibition of EGFR wild type biochemical enzymatic activity (HTRF); settings: EGFR WT, 1 mM ATP, 1 h, room temperature, read-out: IC50 (nM) @WT
# T1 construct: purchased Carna Bio
# T1 sequence (P00533 25-1210): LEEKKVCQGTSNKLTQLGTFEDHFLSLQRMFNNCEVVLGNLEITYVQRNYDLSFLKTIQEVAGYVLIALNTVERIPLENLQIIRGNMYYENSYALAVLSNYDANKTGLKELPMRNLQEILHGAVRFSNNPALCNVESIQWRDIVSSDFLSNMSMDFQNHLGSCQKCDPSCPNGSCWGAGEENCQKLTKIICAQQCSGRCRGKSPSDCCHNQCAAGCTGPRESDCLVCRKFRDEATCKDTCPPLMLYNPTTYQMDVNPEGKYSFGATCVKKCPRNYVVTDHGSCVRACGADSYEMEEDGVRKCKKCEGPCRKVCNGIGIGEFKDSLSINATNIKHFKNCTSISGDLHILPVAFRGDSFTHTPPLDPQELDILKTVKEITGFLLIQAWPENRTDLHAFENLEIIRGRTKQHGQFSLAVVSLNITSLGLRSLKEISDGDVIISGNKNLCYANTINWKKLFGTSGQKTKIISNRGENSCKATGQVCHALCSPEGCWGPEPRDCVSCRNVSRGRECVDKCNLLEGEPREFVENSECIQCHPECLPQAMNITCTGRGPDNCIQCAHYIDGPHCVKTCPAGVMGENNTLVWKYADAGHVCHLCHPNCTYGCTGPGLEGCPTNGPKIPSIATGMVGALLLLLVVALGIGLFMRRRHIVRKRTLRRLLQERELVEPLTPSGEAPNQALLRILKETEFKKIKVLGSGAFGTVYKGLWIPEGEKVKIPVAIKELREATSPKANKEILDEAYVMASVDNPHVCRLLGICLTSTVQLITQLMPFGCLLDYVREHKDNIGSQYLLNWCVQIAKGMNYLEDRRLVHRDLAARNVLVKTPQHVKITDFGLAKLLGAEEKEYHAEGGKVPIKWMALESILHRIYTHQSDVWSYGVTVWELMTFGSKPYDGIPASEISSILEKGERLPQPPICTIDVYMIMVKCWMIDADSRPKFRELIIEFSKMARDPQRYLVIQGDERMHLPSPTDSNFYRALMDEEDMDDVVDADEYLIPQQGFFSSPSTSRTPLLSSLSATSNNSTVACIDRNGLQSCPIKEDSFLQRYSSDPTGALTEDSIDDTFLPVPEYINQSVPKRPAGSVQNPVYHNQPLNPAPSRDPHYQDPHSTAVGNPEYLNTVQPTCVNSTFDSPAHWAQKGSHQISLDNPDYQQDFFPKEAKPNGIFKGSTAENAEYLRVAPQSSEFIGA
# Summary of the method: (§1)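 Phosphorylation of TK Substrate-biotin (1 μM) was measured at 1 mM ATP over a 1 h room-temperature incubation with serially varied compound. Detection was by HTRF ratio and analysis by 4PL fit to IC50.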
# EGFR L858R = biological target: T2, EGFR L858R (Homo sapiens, UniProt P00533, L858R); assay: Inhibition of EGFR L858R biochemical enzymatic activity (HTRF); settings: 1 mM ATP, 1 h, room temperature, read-out: IC50 (nM) @L858R
# T2 construct: purchased Carna Bio
# T2 sequence (P00533 25-1210 L858R): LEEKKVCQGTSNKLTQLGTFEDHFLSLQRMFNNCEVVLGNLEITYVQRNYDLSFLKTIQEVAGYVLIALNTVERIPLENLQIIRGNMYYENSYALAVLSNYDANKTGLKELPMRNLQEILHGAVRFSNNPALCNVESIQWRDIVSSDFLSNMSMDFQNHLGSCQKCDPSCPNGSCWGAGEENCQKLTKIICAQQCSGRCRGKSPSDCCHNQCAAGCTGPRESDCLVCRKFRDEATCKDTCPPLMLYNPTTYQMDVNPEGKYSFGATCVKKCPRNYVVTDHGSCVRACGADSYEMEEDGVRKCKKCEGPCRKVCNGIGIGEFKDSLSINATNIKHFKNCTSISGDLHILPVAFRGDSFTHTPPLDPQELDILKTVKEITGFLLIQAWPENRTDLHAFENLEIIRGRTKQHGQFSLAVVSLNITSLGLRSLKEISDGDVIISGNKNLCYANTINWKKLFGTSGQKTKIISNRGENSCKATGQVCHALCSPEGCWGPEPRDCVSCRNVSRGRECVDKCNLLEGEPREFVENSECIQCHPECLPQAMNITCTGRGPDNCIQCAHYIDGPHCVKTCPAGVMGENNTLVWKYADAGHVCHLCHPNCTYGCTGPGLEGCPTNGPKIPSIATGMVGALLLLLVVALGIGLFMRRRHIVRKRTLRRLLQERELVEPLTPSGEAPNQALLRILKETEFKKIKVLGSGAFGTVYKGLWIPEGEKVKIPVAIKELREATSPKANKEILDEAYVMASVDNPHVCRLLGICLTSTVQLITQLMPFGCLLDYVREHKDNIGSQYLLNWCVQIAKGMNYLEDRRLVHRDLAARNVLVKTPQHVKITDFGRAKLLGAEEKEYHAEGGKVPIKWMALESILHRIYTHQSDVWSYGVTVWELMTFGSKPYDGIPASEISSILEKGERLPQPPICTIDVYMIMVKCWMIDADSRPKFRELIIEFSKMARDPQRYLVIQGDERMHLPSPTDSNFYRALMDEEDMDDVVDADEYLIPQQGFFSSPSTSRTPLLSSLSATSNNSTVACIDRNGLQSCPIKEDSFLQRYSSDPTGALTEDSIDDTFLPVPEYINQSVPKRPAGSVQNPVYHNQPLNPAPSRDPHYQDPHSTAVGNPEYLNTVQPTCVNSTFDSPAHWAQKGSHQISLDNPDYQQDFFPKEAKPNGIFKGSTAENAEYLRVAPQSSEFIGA
# Summary of the method: as §1
# EGFR L858R/T790M = biological target: T3, EGFR L858R/T790M (Homo sapiens, UniProt P00533, L858R/T790M); assay: Inhibition of EGFR L858R/T790M biochemical enzymatic activity (HTRF); settings: EGFR L858R-T790M, 1 mM ATP, 1 h, room temperature, read-out: IC50 (nM) @L858R-T790M
# T3 construct: purchased Carna Bio
# Summary of the method: as §1
# EGFR Exon19Del = biological target: T4, EGFR Exon19Del (Homo sapiens, UniProt P00533, DEL746-750); assay: Inhibition of EGFR Exon19Del biochemical enzymatic activity (HTRF); settings: EGFR Del19, 1 mM ATP, 1 h, room temperature, read-out: IC50 @Del19
# T4 construct: purchased Carna Bio
# Summary of the method: as §1
# EGFR Exon19Del/T790M = biological target: T5, EGFR Exon19Del/T790M (Homo sapiens, UniProt P00533, DEL746-750/T790M); assay: Inhibition of EGFR Exon19Del/T790M biochemical enzymatic activity (HTRF); settings: EGFR Del19-T790M, 1 mM ATP, 1 h, room temperature, read-out: IC50 (nM) @Del19-T790M
# T5 construct: purchased Carna Bio
# T5 sequence (P00533 with tags, fused parts or gaps DEL746-750/T790M limits assumed): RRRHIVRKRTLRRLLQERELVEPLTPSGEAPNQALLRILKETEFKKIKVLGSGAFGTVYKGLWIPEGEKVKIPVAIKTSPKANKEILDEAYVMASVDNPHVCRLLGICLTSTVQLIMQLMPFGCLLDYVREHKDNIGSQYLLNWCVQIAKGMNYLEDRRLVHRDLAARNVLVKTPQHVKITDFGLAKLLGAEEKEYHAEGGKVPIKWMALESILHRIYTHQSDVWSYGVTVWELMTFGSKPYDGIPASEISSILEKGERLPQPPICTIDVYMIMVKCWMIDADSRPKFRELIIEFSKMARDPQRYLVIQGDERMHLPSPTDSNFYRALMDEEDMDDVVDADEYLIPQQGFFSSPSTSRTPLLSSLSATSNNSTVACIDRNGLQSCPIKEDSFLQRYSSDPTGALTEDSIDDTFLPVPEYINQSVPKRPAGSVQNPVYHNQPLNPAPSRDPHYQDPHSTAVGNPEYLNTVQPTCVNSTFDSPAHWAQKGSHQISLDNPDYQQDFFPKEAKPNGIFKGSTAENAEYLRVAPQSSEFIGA
# Summary of the method: as §1
# EGFR[T790M/C797S/L858R] = biological target: T6, EGFR[T790M/C797S/L858R] (Homo sapiens, UniProt P00533, C797S/L858R/T790M); assay: Inhibition of EGFR[T790M/C797S/L858R] biochemical enzymatic activity (HTRF); settings: EGFR T790M-C797S-L858R, 1 mM ATP, 1 h, room temperature, read-out: IC50 (nM) @T790M- C797S - L858R
# T6 construct: purchased Carna Bio
# T6 sequence (P00533 25-1210 T790M/C797S/L858R): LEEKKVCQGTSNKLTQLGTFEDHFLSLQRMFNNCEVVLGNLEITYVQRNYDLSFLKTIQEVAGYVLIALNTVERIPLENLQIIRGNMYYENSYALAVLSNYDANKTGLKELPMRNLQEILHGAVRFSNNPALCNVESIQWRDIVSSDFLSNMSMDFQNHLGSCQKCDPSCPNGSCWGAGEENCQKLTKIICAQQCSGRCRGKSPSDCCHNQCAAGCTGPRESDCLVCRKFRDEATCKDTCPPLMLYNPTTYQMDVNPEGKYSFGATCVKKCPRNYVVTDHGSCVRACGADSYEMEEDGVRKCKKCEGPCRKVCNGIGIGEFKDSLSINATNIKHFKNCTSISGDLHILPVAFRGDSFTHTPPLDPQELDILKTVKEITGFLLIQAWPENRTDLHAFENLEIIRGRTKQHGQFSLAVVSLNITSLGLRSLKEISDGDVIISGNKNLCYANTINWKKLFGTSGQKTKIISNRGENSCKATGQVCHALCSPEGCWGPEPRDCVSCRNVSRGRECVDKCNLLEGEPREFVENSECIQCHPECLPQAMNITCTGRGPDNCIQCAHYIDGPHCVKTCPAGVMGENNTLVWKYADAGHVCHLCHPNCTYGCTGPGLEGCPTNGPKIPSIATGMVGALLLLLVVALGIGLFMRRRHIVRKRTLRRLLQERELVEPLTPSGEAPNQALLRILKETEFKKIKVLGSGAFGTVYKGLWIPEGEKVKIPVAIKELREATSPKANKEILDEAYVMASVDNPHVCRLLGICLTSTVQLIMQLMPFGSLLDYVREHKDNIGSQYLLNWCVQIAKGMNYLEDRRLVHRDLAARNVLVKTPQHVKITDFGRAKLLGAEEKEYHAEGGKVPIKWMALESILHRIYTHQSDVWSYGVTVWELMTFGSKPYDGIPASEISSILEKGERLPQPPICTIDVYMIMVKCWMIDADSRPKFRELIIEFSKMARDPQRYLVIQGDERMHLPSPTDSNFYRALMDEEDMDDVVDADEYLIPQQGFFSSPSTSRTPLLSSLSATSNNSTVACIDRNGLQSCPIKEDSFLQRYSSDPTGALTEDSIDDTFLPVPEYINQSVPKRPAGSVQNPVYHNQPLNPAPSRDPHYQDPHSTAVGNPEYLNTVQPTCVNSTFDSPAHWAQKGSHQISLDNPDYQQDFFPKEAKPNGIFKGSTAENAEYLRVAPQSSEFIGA
# Summary of the method: as §1
# [1] = biological target: T7, EGFR[T790M/C797S/d746-750] (Homo sapiens, UniProt P00533, C797S/DEL746-750/T790M); assay: Inhibition of EGFR[T790M/C797S/d746-750] biochemical enzymatic activity (HTRF); settings: EGFR T790M-C797S-Del19, 1 mM ATP, 1 h, room temperature, read-out: IC50 (nM) @T790M - C797S - Del19
# T7 construct: purchased Carna Bio
# Summary of the method: as §1
# EGFR (d746-750 C797S) = biological target: T8, EGFR (d746-750 C797S) (Homo sapiens, UniProt P00533, C797S/DEL746-750); assay: Inhibition of EGFR (d746-750 C797S) biochemical enzymatic activity (HTRF); settings: EGFR Del19-C797S, 1 mM ATP, 1 h, room temperature, read-out: IC50 (nM) @Del19-C797S
# T8 construct: purchased signalchem
# T8 sequence (P00533 with tags, fused parts or gaps DEL746-750/C797S limits assumed): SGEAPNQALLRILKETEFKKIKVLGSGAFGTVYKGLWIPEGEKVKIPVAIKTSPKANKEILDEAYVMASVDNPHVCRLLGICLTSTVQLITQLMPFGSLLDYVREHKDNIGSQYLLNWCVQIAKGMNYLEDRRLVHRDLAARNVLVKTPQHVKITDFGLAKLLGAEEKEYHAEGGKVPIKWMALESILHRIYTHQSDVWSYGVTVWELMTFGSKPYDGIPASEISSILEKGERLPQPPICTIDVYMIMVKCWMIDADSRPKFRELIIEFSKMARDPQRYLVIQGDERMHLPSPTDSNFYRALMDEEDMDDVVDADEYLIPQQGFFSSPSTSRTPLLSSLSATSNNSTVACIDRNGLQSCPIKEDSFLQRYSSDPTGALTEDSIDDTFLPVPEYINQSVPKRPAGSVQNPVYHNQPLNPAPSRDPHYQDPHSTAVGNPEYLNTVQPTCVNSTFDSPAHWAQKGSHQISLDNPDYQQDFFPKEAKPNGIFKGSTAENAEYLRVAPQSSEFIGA
# Summary of the method: as §1
# EGFR (C797S L858R) = biological target: T9, EGFR (C797S L858R) (Homo sapiens, UniProt P00533, C797S/L858R); assay: Inhibition of EGFR (C797S L858R) biochemical enzymatic activity (HTRF); settings: EGFR L858-C797S, 1 mM ATP, 1 h, room temperature, read-out: IC50 (nM) @L858-C797S
# T9 construct: purchased signalchem
# Summary of the method: as §1
# [2] = test system: Ba/F3 cells expressing EGFR mutations; assay: Cell proliferation assay, Ba/F3 cells expressing EGFR mutations (CellTiter-Glo, 72 hours); type: cell-based; settings: Mus musculus, BaF3, 72 h
# Summary of the method: (§2)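 In RPMI1640 medium (PC-9 with 10% FBS), each cell line was seeded at its own density: Ba/F3 5000 and PC-9 500 per well. A compound series was added the next day, with a time-zero viability plate read in parallel. Percent proliferation was subtracted for G0 and referenced to DMSO, and GI50 was derived by curve fitting.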
# PC-9 = assay: Cell proliferation assay, PC-9 cells (CellTiter-Glo, 72 hours); type: cell-based; settings: Homo sapiens, PC-9, 72 h, PC9 cells, read-out: GI50 PC9
# Summary of the method: as §2
# A-431 = assay: Cell proliferation assay, A-431 cells (GI50, Table 6); type: cell-based; settings: Homo sapiens, A-431, A-431 cells
# [3] = BaF3 cells, EGFR DEL19 - C797S, read-out: GI50 DEL19 - C797S/BaF3
# [4] = BaF3 cells, EGFR DEL19 - T790-C797S, read-out: GI50 DEL19 - T790-C797S/BaF3
# [5] = BaF3 cells, EGFR L858R - C797S, read-out: GI50 L858R - C797S/BaF3
# [6] = BaF3 cells, EGFR L858R - T790-C797S, read-out: GI50 L858R - T790-C797S/BaF3
# [7] = BaF3 cells, EGFR L858R - T790M, read-out: GI50 L858R - T790M/BaF3
# [8] = BaF3 cells, EGFR L858R, read-out: GI50 L858R/BaF3
# [9] = EGFR DEL19 - T790M, read-out: GI50 DEL19 - T790M
IC50 (EGFR wild type),IC50 (EGFR L858R),IC50 (EGFR L858R/T790M),IC50 (EGFR Exon19Del),IC50 (EGFR Exon19Del/T790M),IC50 (EGFR[T790M/C797S/L858R]),IC50 [1],IC50 (EGFR (d746-750 C797S)),IC50 (EGFR (C797S L858R)),"GI50 [2, 3]","GI50 [2, 4]","GI50 [2, 5]","GI50 [2, 6]","GI50 [2, 7]","GI50 [2, 8]","GI50 [2, 9]",GI50 (PC-9),GI50 (A-431),SMILES
216 nM,6.2 nM,5.1 nM,2.8 nM,2.9 nM,6.1 nM,3.2 nM,1.7 nM,4.9 nM,2.6 nM,26 nM,14 nM,30 nM,50 nM,9.6 nM,22 nM,112 nM,529 nM,"C[C@@H]1CCCOc2ccc(F)cc2-c2cc(cn(C)c2=O)C(=O)Nc2nc3ccc(N4CCN(C)CC4)cc3n2C1 [Example A110, (12R)-4-fluoro-12,27-dimethyl-17-(4-methylpiperazin-1-yl)-8-oxa-14,21,23,27-tetraazapentacyclo[23.3.1.0^{2,7}.0^{14,22}.0^{15,20}]nonacosa-1(29),2(7),3,5,15,17,19,21,25-nonaene-24,28-dione]"
607 nM,36 nM,86 nM,21 nM,46 nM,63 nM,47 nM,18 nM,40 nM,30.3 nM,326 nM,125 nM,309 nM,658 nM,103 nM,325 nM,334 nM,8230 nM,"C[C@@H]1CCCOc2cc(F)c(F)cc2-c2cc(cn(C)c2=O)C(=O)Nc2nc3ccc(N4CCN(C)CC4)cc3n2C1 [Example A111, (12R)-4,5-difluoro-12,27-dimethyl-17-(4-methylpiperazin-1-yl)-8-oxa-14,21,23,27-tetraazapentacyclo[23.3.1.0^{2,7}.0^{14,22}.0^{15,20}]nonacosa-1(29),2(7),3,5,15,17,19,21,25-nonaene-24,28-dione]"
> 5000 nM,198 nM,133 nM,8.5 nM,15 nM,52 nM,12 nM,6.6 nM,60 nM,4.5 nM,70 nM,47 nM,64 nM,37 nM,89 nM,105 nM,45 nM,3590 nM,"CN1CCN(c2ccc3nc4n(c3c2)C(C)(C)CCCCOc2c(cnn2C)-c2cc(cn(C)c2=O)C(=O)N4)CC1 [Example A112, 5,12,12,26-Tetramethyl-16-(4-methylpiperazin-1-yl)-7-oxa-4,5,13,20,22,26-hexaazapentacyclo[22.3.1.0^{2,6}.0^{13,21}.0^{14,19}]octacosa-1(28),2(6),3,14,16,18,20,24-octaene-23,27-dione]"
> 5000 nM,439 nM,230 nM,41 nM,32 nM,900 nM,45 nM,1200 nM,46 nM,15 nM,108 nM,172 nM,230 nM,255 nM,121 nM,63 nM,147 nM,4690 nM,"Cn1ncc2c1OCCN1CC3CCC(CC3)(C1)n1c(nc3cc(F)c(N4CCOCC4)cc31)NC(=O)c1cc-2c(=O)n(C)c1 [Example A113, 6-Fluoro-15,21-dimethyl-5-(morpholin-4-yl)-23-oxa-2,9,11,15,20,21,26-heptaazaheptacyclo[26.2.2.1^{1,26}.1^{13,17}.0^{2,10}.0^{3,8}.0^{18,22}]tetratriaconta-3,5,7,9,13,17(34),18(22),19-octaene-12,16-dione]"
> 5000 nM,> 5000 nM,> 5000 nM,464 nM,88 nM,> 5000 nM,168 nM,474 nM,3700 nM,56 nM,336 nM,194 nM,162 nM,720 nM,419 nM,157 nM,256 nM,3440 nM,"Cn1ncc2c1OCCN1CC3CCC(CC3)(C1)n1c(nc3cc(F)ccc31)NC(=O)c1cc-2c(=O)n(C)c1 [Example A116, 6-fluoro-15,21-dimethyl-23-oxa-2,9,11,15,20,21,26-heptaazaheptacyclo[26.2.2.1^{1,26}.1^{13,17}.0^{2,10}.0^{3,8}.0^{18,22}]tetratriaconta-3,5,7,9,13,17(34),18(22),19-octaene-12,16-dione]"
> 5000 nM,463 nM,1910 nM,23 nM,3.3 nM,280 nM,2.5 nM,8.1 nM,23 nM,4.3 nM,20 nM,38 nM,32 nM,80 nM,16 nM,12 nM,57 nM,1510 nM,"Cn1ncc2c1OCCN1CC3CCC(C3)(C1)n1c(nc3cc(F)ccc31)NC(=O)c1cc-2c(=O)n(C)c1 (stereo not drawn) [Example A117B, 6-fluoro-15,21-dimethyl-23-oxa-2,9,11,15,20,21,26-heptaazaheptacyclo[24.4.1.1^{1,28}.1^{13,17}.0^{2,10}.0^{3,8}.0^{18,22}]tritriaconta-3,5,7,9,13,17(33),18(22),19-octaene-12,16-dione]"
1060 nM,38 nM,32 nM,7.6 nM,6.6 nM,9 nM,3 nM,4.7 nM,19 nM,1.5 nM,11 nM,11 nM,6.6 nM,15 nM,2.1 nM,7.3 nM,11 nM,1070 nM,"CN(C)C1CCN(c2ccc3nc4n(c3c2)C23CCC(CC2)CN(CCOc2c(cnn2C)-c2cc(cn(C)c2=O)C(=O)N4)C3)CC1 [Example A119, 5-[4-(dimethylamino)piperidin-1-yl]-15,21-dimethyl-23-oxa-2,9,11,15,20,21,26-heptaazaheptacyclo[26.2.2.1^{1,26}.1^{13,17}.0^{2,10}.0^{3,8}.0^{18,22}]tetratriaconta-3,5,7,9,13,17(34),18(22),19-octaene-12,16-dione]"
> 5000 nM,177 nM,374 nM,22 nM,16 nM,113 nM,15 nM,14 nM,108 nM,13 nM,71 nM,50 nM,28 nM,113 nM,8.1 nM,40 nM,54 nM,7850 nM,CN(C)[C@H]1CCN(c2ccc3nc4n(c3c2)C23CCC(CC2)CN(CCOc2c(cnn2C)-c2cc(cn(C)c2=O)C(=O)N4)C3)C1 [Example A120]
